The term IC50 denotes the concentration at which inhibition is half-maximal. A higher IC50 goes with lower potency.

This is an account of results in US20260070902A1, “SULFONYL DERIVATIVES AS CCR6 INHIBITORS” (Hoffmann-La Roche Inc., priority 2022, published 2026).

The subject of experiment [1] is Human CD4+ T cells. The experiment can be described thus: CD4+ T cells chemotaxis assay towards CCL20. It is filed as cell-based. The conditions noted are these: 3 h; for CD4+ T-cell chemotaxis: relative -Log IC50, human CD4+ T cells stimulated with anti-CD3 and anti-CD28, migration towards 150 ng/ml CCL20; for IC50: Homo sapiens, CD4+ T cell, relative -Log IC50, human CD4+ T cells stimulated with anti-CD3 and anti-CD28, migration towards 150 ng/ml CCL20. The text has this:
CD4+ T Cells Chemotaxis Assay Towards CCL20
Human CD4+ T cells were isolated from buffy coats of healthy donors using a CD4+ T Cell Isolation Kit (Miltenyi Biotec130-096-533). Isolated T cells were stimulated overnight with anti-CD3 and anti-CD28 antibodies (Biolegend 300314/302934) in growth medium (RPMI1640, 10% heat-inactivated FBS, 1× pen/strep (Gibco 15140)). For the chemotaxis assay, Corning Transwell plates were used with a pore size of 5 m (Corning 3388). T cells were counted and diluted to 6*10^6 cells/ml in chemotaxis medium (RPMI1640, 1% BSA, pen/strep). Compounds were four-fold serially diluted in DMSO. Further dilutions were made in chemotaxis medium. Cells were incubated with test compounds for 30 min at 37° C. prior to initiation of the assay (3*10^6 cells/ml). Final DMSO concentration in the assay was 0.2%. Wells of the Transwell plates were filled with 200 μl chemotaxis medium containing 150 ng/ml CCL20 (R&D systems 360-MP). 50 μl of the cell/compound suspension was added to the inserts of the Transwell plates (150,000 cells/insert). The Transwell plates were placed in an incubator at 37° C., 5% CO2 for 3 h. After 3 h, the number of migrated cells was quantified using CellTiter Glo (Promega). Percentage inhibition values were calculated based on the low and high signal obtained with 0.2% DMSO in chemotaxis medium without and with CCL20, respectively. The relative −Log IC50 was determined with GraphPad Prism 9 using a four-parameter dose-response model.

In experiment [2] the target is T1, human CCR6 (Homo sapiens, UniProt P51684).
T1 sequence (P51684 1-374): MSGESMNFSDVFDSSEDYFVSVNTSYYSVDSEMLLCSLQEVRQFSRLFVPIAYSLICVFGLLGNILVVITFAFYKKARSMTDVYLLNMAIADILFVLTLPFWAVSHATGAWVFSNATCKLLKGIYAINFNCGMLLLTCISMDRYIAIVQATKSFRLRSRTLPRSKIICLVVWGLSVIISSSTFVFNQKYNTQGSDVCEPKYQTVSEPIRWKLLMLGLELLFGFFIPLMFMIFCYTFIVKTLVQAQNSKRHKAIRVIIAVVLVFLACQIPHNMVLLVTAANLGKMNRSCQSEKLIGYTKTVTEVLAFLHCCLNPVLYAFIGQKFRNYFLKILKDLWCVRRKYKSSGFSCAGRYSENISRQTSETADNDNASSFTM
The experiment can be described thus: Human CCR6-CRE reporter assay. It is filed as cell-based. Details: The second construct contained the open reading frame of human CCR6 in the pUNO1 backbone; host or cells: 293FT cells. The conditions noted are these: relative -Log IC50; 293FT cells transfected with human CCR6 and CRE-luciferase reporter; 6 μM Forskolin, 6 nM CCL20; 5 h. The gist of the method: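 293FT cells transiently co-transfected with human CCR6 and a CRE-luc2P reporter, used 48 h later. Compounds incubated with cells in medium containing 6 μM Forskolin and 6 nM CCL20 (assay-medium levels), 0.1% DMSO final, 5 h at 37° C; luminescence read, relative −Log IC50 from four-parameter fit.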
(In general: A reporter such as luciferase makes a cellular process visible.)

The structures appear in SMILES notation.

With `N=S(=O)(c1ccc(-c2ccnc(C(N)=O)c2)cc1)[C@H]1CC[C@H](Nc2ccc(S(F)(F)(F)(F)F)cc2)CC1` (single isomer, unassigned; (+)) [Example 130, (+)-4-(4-{[trans-4-{[4-(pentafluoro-λ^6-sulfanyl)phenyl]Amino}cyclohexyl]sulfonimidoyl}phenyl)pyridine-2-carboxamide], the “CD4+ T-cell chemotaxis” value in experiment [1] was determined as 7.3. In experiment [2], this molecule had an IC50 of 200 nM.
With `CC(C)c1nnc2ccc(-c3ccc(S(=N)(=O)[C@H]4CC[C@H](Nc5ccc(S(F)(F)(F)(F)F)cc5)CC4)cc3)cn12` (single isomer, unassigned; (+)) [Example 163, (+)-{4-[3-(propan-2-yl)-[1,2,4]triazolo[4,3-a]pyridin-6-yl]phenyl}[trans-4-{[4-(pentafluoro-λ^6-sulfanyl)phenyl]amino}cyclohexyl](imino)-λ^6-sulfanone], in experiment [1], the “CD4+ T-cell chemotaxis” value turned out to be 7.8. The molecule further showed an IC50 in experiment [2] of 79.4 nM.
Taken in the same sequence, the figures for `N=S(=O)(c1ccc(-c2ccnc(C(N)=O)c2)cc1)[C@H]1CC[C@H](Nc2ccc(S(F)(F)(F)(F)F)cc2)CC1` (single isomer, unassigned; (-)) [Example 131, (−)-4-(4-{[trans-4-{[4-(pentafluoro-λ^6-sulfanyl)phenyl]Amino}cyclohexyl]sulfonimidoyl}phenyl)pyridine-2-carboxamide] were 6.6 and 316 nM.
Taken in the same sequence, the figures for `CC(C)c1nnc2ccc(-c3ccc(S(=N)(=O)[C@H]4CC[C@H](Nc5ccc(S(F)(F)(F)(F)F)cc5)CC4)cc3)cn12` (single isomer, unassigned; (-)) [Example 164, (−)-{4-[3-(propan-2-yl)-[1,2,4]triazolo[4,3-a]pyridin-6-yl]phenyl}[trans-4-{[4-(pentafluoro-λ^6-sulfanyl)phenyl]amino}cyclohexyl](imino)-λ^6-sulfanone] were 6.7 and 126 nM.
`Cc1[nH]nc2ccc(-c3ccc(S(=O)(=O)N4CCC(Nc5ccc(S(F)(F)(F)(F)F)cc5)CC4)cc3)cc12` [Example 2, 1-[4-(3-methyl-2H-indazol-5-yl)benzenesulfonyl]-N-[4-(pentafluoro-λ^6-sulfanyl)phenyl]piperidin-4-amine]: the half-maximal inhibitory concentration (IC50) in experiment [1] was 5.01 nM; in experiment [2], 63.1 nM.
Taken in the same sequence, the figures for `N#Cc1c[nH]c2ccc(-c3ccc(S(=O)(=O)N4CCC(Nc5ccc(S(F)(F)(F)(F)F)cc5)CC4)cc3)cc12` [Example 3, 5-{4-[(4-{[4-(pentafluoro-λ^6-sulfanyl)phenyl]Amino}piperidin-1-yl)sulfonyl]phenyl}-1H-indole-3-carbonitrile] were 15.8 nM and 50.1 nM.
Taken in the same sequence, the figures for `N#Cc1n[nH]c2ccc(-c3ccc(S(=O)(=O)N4CCC(Nc5ccc(S(F)(F)(F)(F)F)cc5)CC4)cc3)cc12` [Example 4, 5-{4-[(4-{[4-(pentafluoro-λ^6-sulfanyl)phenyl]Amino}piperidin-1-yl)sulfonyl]phenyl}-1H-indazole-3-carbonitrile] were 0.794 nM and 50.1 nM.
Consider `N#Cc1c[nH]c2ccc(-c3ccc(S(=O)(=O)[C@H]4CC[C@H](Nc5ccc(S(F)(F)(F)(F)F)cc5)CC4)cc3)cc12` [Example 7, 5-(4-{[trans-4-{[4-(pentafluoro-λ^6-sulfanyl)phenyl]Amino}cyclohexyl]sulfonyl}phenyl)-1H-indole-3-carbonitrile], for which the half-maximal inhibitory concentration (IC50) in experiment [1] was 0.501 nM; in experiment [2], 39.8 nM.
Take `O=C1NCc2ccc(-c3ccc(S(=O)(=O)[C@H]4CC[C@H](Nc5ccc(S(F)(F)(F)(F)F)cc5)CC4)cc3)cc21` [Example 9, 6-(4-{[trans-4-{[4-(pentafluoro-λ^6-sulfanyl)phenyl]Amino}cyclohexyl]sulfonyl}phenyl)-2,3-dihydro-1H-isoindol-1-one]: the IC50 in experiment [1] was 10 nM; in experiment [2], 79.4 nM.
`O=S(=O)(c1ccc(-c2ccc3nccn3c2)cc1)[C@H]1CC[C@H](Nc2ccc(S(F)(F)(F)(F)F)cc2)CC1` [Example 12, 4-(pentafluoro-λ^6-sulfanyl)-N-[trans-4-(4-{imidazo[1,2-a]pyridin-6-yl}benzenesulfonyl)cyclohexyl]aniline]: the values for the IC50 in experiment [1] and in experiment [2] were 15.8 nM and 79.4 nM, respectively.
Taken in the same sequence, the figures for `N#Cc1cnc2ccc(-c3ccc(S(=O)(=O)N4CCC(Nc5ccc(S(F)(F)(F)(F)F)cc5)CC4)cc3)cn12` [Example 25, 6-{4-[(4-{[4-(pentafluoro-λ^6-sulfanyl)phenyl]Amino}piperidin-1-yl)sulfonyl]phenyl}imidazo[1,2-a]pyridine-3-carbonitrile] were 5.01 nM and 39.8 nM.
Taken in the same sequence, the figures for `O=c1[nH]nc2ccc(-c3ccc(S(=O)(=O)N4CCC(Nc5ccc(S(F)(F)(F)(F)F)cc5)CC4)cc3)cn12` [Example 32, 6-{4-[(4-{[4-(pentafluoro-λ^6-sulfanyl)phenyl]Amino}piperidin-1-yl)sulfonyl]phenyl}-2H,3H-[1,2,4]triazolo[4,3-a]pyridin-3-one] were 3.98 nM and 100 nM.
As to `N#Cc1n[nH]c2ccc(-c3ccc(S(=O)(=O)[C@H]4CC[C@H](Nc5ccc(S(F)(F)(F)(F)F)cc5)CC4)cc3)cc12` [Example 38, 5-(4-{[trans-4-{[4-(pentafluoro-λ^6-sulfanyl)phenyl]Amino}cyclohexyl]sulfonyl}phenyl)-1H-indazole-3-carbonitrile], the figures for the IC50 in experiment [1] and in experiment [2] were 0.631 nM and 39.8 nM, respectively.
Taken in the same sequence, the figures for `Cc1nc2ccc(-c3ccc(S(=O)(=O)[C@H]4CC[C@H](Nc5ccc(S(F)(F)(F)(F)F)cc5)CC4)cc3)cn2n1` [Example 40, 4-(pentafluoro-λ^6-sulfanyl)-N-[trans-4-(4-{2-methyl-[1,2,4]triazolo[1,5-a]pyridin-6-yl}benzenesulfonyl)cyclohexyl]aniline] were 10 nM and 100 nM.
Taken in the same sequence, the figures for `O=S(=O)(c1ccc(-c2ccc(O)nc2)cc1)[C@H]1CC[C@H](Nc2ccc(S(F)(F)(F)(F)F)cc2)CC1` [Example 56, 5-(4-{[trans-4-{[4-(pentafluoro-λ^6-sulfanyl)phenyl]Amino}cyclohexyl]sulfonyl}phenyl)pyridin-2-ol] were 15.8 nM and 63.1 nM.
On to `O=S(=O)(c1ccc(-c2ccc3nccn3c2)nc1)N1CCC(Nc2ccc(S(F)(F)(F)(F)F)cc2)CC1` [Example 77, 1-[(6-{imidazo[1,2-a]pyridin-6-yl}pyridin-3-yl)sulfonyl]-N-[4-(pentafluoro-λ^6-sulfanyl)phenyl]piperidin-4-amine], for which the values for the 50% inhibitory concentration (IC50) in experiment [1] and in experiment [2] were 126 nM and 501 nM, respectively.
In the case of `N#Cc1cnc2ccc(-c3ccc(S(=O)(=O)N4CCC(Nc5cccc(S(F)(F)(F)(F)F)c5)CC4)cc3)cn12` [Example 81, 6-{4-[(4-{[3-(pentafluoro-λ^6-sulfanyl)phenyl]Amino}piperidin-1-yl)sulfonyl]phenyl}imidazo[1,2-a]pyridine-3-carbonitrile], the results for the IC50 in experiment [1] and in experiment [2] were 158 nM and 126 nM, respectively.
Taken in the same sequence, the figures for `O=S(=O)(c1ccc(-c2ccc3nccn3c2)cc1)N1CCC(Nc2cccc(S(F)(F)(F)(F)F)c2)CC1` [Example 82, 1-(4-{imidazo[1,2-a]pyridin-6-yl}benzenesulfonyl)-N-[3-(pentafluoro-λ^6-sulfanyl)phenyl]piperidin-4-amine] were 316 nM and 200 nM.
